Measured values reported in publication PMC9124818 (Pharmacology Research & Perspectives, 2022).
Several values for one entry are separate records, joined by “and”; a condition that tells them apart may be missing. Identical values can stand only once.

What was measured:
[1] = Plasma protein binding, Rapid Equilibrium Device; type: in vitro ADME; conditions: pooled rat or dog plasma, pH 7.4, range
Description: In vitro plasma protein binding was then determined by using the Rapid Equilibrium Device (RED) with a molecular weight cutoff of 8 kDa (Thermo Fisher Scientific, Inc., Waltham, MA). […] The internal standard was niflumic acid. […] Protein binding was determined by adding a 300‐μL aliquot of the test sample or the control sample to the sample chamber of the RED and adding a 500‐μL aliquot of PBS (pH 7.4) to the buffer chamber. The device unit was sealed and incubated at 37°C for 4 h with gentle shaking (~750 rpm). After dialysis, three aliquots of the test samples (50 μL) were collected from both sample and buffer chambers and were mixed with 50 μL of methanol as “donor samples” and “acceptor samples,” respectively. […] A detailed description of the LC‐MS/MS process can be found in the Supplemental Material. Supernatant fractions were analyzed by LC‐MS/MS using an Acquity Ultra Performance Liquid Chromatography system with ethylene bridged hybrid (BEH) C18 columns (2.1 × 50 mm, 1.7 µm; Waters Corporation; Milford, MA) coupled to an API4000 mass spectrometer (AB Sciex). […] Samples were prepared in triplicate and were dialyzed for 4 h. […] Protein binding was calculated as follows: Proteinbindingratio%=100‐Unboundratio%, where Unboundratio%=AcceptorSampleConcentration/DonorSampleConcentration.

OCT2 = molecular target: T1, OCT2 (Homo sapiens, UniProt O15244); assay: Transporter inhibition, uptake of [14C]-metformin in HEK293 cells; type: in vitro ADME; conditions: probe [14C]-metformin 10 μM
T1 construct: host or cells: HEK293
T1 sequence (O15244 1-555): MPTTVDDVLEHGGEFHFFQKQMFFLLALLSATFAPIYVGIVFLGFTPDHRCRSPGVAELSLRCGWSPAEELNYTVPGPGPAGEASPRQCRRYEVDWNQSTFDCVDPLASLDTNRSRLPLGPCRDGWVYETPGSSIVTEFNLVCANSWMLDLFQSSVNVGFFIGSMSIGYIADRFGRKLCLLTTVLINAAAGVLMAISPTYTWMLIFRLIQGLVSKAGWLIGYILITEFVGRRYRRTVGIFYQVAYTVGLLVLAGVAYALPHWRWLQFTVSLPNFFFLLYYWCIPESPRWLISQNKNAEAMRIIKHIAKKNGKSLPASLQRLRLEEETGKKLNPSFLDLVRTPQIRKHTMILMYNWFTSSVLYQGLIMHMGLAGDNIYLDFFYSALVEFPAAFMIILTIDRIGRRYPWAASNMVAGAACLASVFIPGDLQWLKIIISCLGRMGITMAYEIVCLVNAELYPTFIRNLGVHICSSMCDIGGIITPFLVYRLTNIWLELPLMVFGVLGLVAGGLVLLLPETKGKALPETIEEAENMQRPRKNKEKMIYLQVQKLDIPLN
Text: Cells were then washed, lysed with scintillation cocktail, and analyzed for the probe substrate with a MicroBeta scintillation counter (PerkinElmer, Hopkinton, MA). Transcellular transporter assay conditions are described in Supplemental Table 1. Calculation of IC50 values was based on bidirectional permeability of probe substrate with and without the inhibitor in MDCKII cells expressing BCRP and in Caco‐2 cells expressing P‐gp, and transporter‐dependent uptake of probe substrate in HEK293 cells expressing all other transporters (Supplemental Table 1).
The transporter-specific uptake of the probe substrate in cells was determined by subtracting the accumulation in the control cells from the accumulation in the transporter-expressing cells.

CCNC(C)Cc1cccc(C(F)(F)F)c1 (racemic) [FFA, (RS)‐ethyl(α‐methyl‐3‐trifluoromethylphenethyl)amine, reference compound]
fraction unbound at 4 h [1]: 0.378 to 0.538

CC(N)Cc1cccc(C(F)(F)F)c1.Cl (centres unmarked) [nFFA, [1‐(3‐trifluoromethyl)phenyl]propan‐2‐amine hydrochloride]
IC50 (OCT2): 5.21 µM and 5.2 µM
